# In US9050353B2, “Use of icariin and epimedium flavonoids containing icariin to treat diseases associated with myelin sheath lesion” (Xuanwu Hospital of Capital Medical University, priority 2010, dated 2015):
# What was measured:
# Assay type in all cases: in vivo
# IL-1β = IL-1β of spinal cord lumbar intumescentia by immunohistochemical method, EAE rats; conditions: positive control drug, dose not given
# Description: (§1) Preparation of rat model and administration: experimental autoimmune encephalomyelitis (EAE) model is an important tool for studying various human demyelinating diseases of nervous system. In the example, the preparation of EAE rat model was performed by multipoint immunizing female Lewis rats subcutaneously at tail root with a homogenate of spinal cord and cerebral gray matter of Guinea pig as well as complete Freund's adjuvant after emulsification. They were intragastrically administered with Epimedium flavanoids for 3 weeks.
# Experimental objective: interleukin 1β (IL-1β) is an important inflammatory cytokines, and has promoting effects on inflammatory reactions. This experiment used immunohistochemical method to measure the content of IL-1β in spinal cord lumbar intumescentia of EAE model group rat, and observed the effects of Epimedium flavanoids on the content.
# Experimental method: rats were anesthetized with 10% chloral hydrate, fixed by perfusion of 4% paraformaldehyde, spinal cord tissue was taken for making frozen section. Incubated with IL-1β primary antibody, added with corresponding secondary antibody, third antibody, DAB developed, observed under microscope. Pictures were analyzed by Image Pro plus 5.0 software.
# nitric oxide (NO) = test: NO content of cerebral cortex, biochemical kit, EAE rats; conditions: positive control drug, dose not given
# Description: as §1
# Experimental objective: nitric-oxide synthase (NOS) catalyzes the generation of nitric oxide (NO). During inflammatory reaction, the activity of induced NOS increases, excess NO are generated and oxygen radicals are generated via oxidation, which may result in damages in nerve cells and myelin sheath. In this experiment, NOS activity and NO content were measured using biochemical kits in cerebral cortex of EAE rat model, and the effects of Epimedium flavanoids on changes thereof were observed. […]
# [1] = tested on: myelinoclasis of spinal cord lumbar intumescentia in EAE rat model; test: Myelinoclasis of spinal cord lumbar intumescentia, LFB staining, EAE rats; conditions: positive control drug, dose not given, scale 0-4
# Description: (§2) Preparation of rat model and administration: experimental autoimmune encephalomyelitis (EAE) model is an important tool for studying various human demyelinating diseases of nervous system. In the example, the preparation of EAE rat model was performed by multipoint immunizing female Lewis rats subcutaneously at tail root with a homogenate of spinal cord and cerebral gray matter of Guinea pig as well as complete Freund's adjuvant after emulsification. They were intragastrically administered with Epimedium flavanoids for 3 weeks. […]
# (§3) Experimental method: the rats were anesthetized with 10% chloral hydrate on the 14th day of experiment, fixed by perfusion of 4% paraformaldehyde, spinal cord tissues were taken for making paraffin sections, section thickness 4 μm. (1) Stained with LFB, observed under microscope, and scored according to the following standard: 0 score, absence of myelinoclasis; 1 score, one small range of myelinoclasis; 2 score, 2 or 3 small ranges of myelinoclasis; 3 score, 1 to 2 large ranges of myelinoclasis; 4 score, large ranges of myelinoclasis accumulatively existing in 20% or more of white matter regions. […]
# [2] = tested on: inflammatory cell infiltration of spinal cord lumbar intumescentia in EAE rat model; test: Inflammatory cell infiltration of spinal cord lumbar intumescentia, HE staining, EAE rats; conditions: positive control drug, dose not given, scale 0-4
# Description: as §2, §3
# [3] = tested on: peripheral blood CD4+ and CD8+ T cells; test: Peripheral blood T cell subgroup by flow cytometer, EAE mice; conditions: positive control drug, dose not given
# Description: Preparation of mice model and administration: experimental autoimmune encephalomyelitis (EAE) mice model is an important tool for studying various human demyelinating diseases of nervous system. In the present experiment, the preparation of EAE mice model was performed by immunizing female C57BL/6J mice with myelin sheath oligodendroglial cell surface glycoprotein MOG35-55. That is, the mice were subcutaneously injected at dorsal part of spinal column with 0.2 mL of MOG35-55 antigen elixir, and 0.2 ml of bordetella pertussis solution was intraperitoneally injected at the time of immunization injection and 48 h thereafter, respectively. Icariin was intragastrically administered after the last injection of bordetella pertussis solution, for consecutive 3 weeks.
# Experimental objective: one common feature of autoimmune diseases is the […]. In this experiment, the numbers of CD4+ and CD8+ cells in peripheral blood T cell subgroup of EAE mice mode were measured by flow cytometer (FACS), and the ratio of them was obtained; and the effects of icariin on these changes were observed.
# Experimental method: mice were anesthetized with pentobarbital sodium, blood sample was taken from abdominal aorta, stood at room temperature for 2 h, centrifuged at 3000 rpm for 20 min, and cells were taken, added with anti-CD4+, CD8+ T cell antibodies with different markers, then the percentages of CD4+, CD8+ cells in T lymphocytes were measured by flow cytometer, and the CD4+/CD8+ T cells ratio was calculated.
# [4] = tested on: Brain-derived neurotrophic factor (BDNF); test: BDNF of spinal cord lumbar intumescentia by immunohistochemical method, EAE rats; conditions: positive control drug, dose not given
# Description: as §1
# Experimental objective: neurotrophic factors are important substances for constituting nerve regeneration microenvironment. Brain-derived neurotrophic factor (BDNF) is an important neurotrophic factor, can promote the regeneration and plerosis of myelin sheath. In this experiment, BDNF content of spinal cord lumbar intumescentia in EAE rat model was measured by immunohistochemical method, and the effects of Epimedium flavanoids on the content was observed.
# Experimental method: the rats were anesthetized with 10% chloral hydrate, fixed by perfusion of 4% paraformaldehyde, spinal cord tissues were taken for frozen section. Incubated with BDNF primary antibody, added with corresponding secondary antibody and third antibody, DAB colorated, observed under microscope, and pictures were analyzed using Image Pro plus5.0 software.
# Malondialdehyde (MDA) = test: MDA content of cerebral cortex, biochemical kit, EAE rats; conditions: positive control drug, dose not given
# Description: as §1
# Experimental objective: the lipid peroxidation between oxygen free radicals and unsaturated fatty acids of cell membranes and organelle membranes results in the damage, degradation, denaturation and dysfunction of membrane phospholipids. Malondialdehyde (MDA) is a metabolic product of lipid peroxidation, and the increase of MDA indicates the enhancement of lipid peroxidation, which may lead to damage of nerve cells and myelin sheath. Superoxide dismutase (SOD) can scavenge superoxide anions and is an important antioxidase in vivo. In this experiment, SOD activity and MDA content of brain tissues in EAE rat model were measured by biochemistry method, and the effects of Epimedium flavanoids on changes thereof were observed. […]
compound,measurement,setting,value
CC(=O)OCC(=O)[C@@]1(O)CC[C@H]2[C@@H]3CCC4=CC(=O)C=C[C@]4(C)[C@H]3C(=O)C[C@@]21C [prednisone acetate],IL-1β Accumulative optical density,IL-1β,115.5 ± 8.6 ×10^3
same,IL-1β Positive cell number,IL-1β,672 ± 48
same,NO content,nitric oxide (NO),0.77 ± 0.01 mmol/mg protein
same,Myelinoclasis (LFB staining score),[1],0.89 ± 0.20
same,Inflammatory cell infiltration (HE staining score),[2],1.00 ± 0.29
same,CD4 + T cells,[3],30.45 ± 8.77%
same,CD4 +/CD8 + ratio,[3],0.52 ± 0.23
same,CD8 + T cells,[3],60.62 ± 5.58%
same,integrated optical density of BDNF positive cell,[4],3.64 ± 0.23 ×10^5
same,total area of BDNF positive cell,[4],9.43 ± 1.12 ×10^5
same,MDA content,Malondialdehyde (MDA),1.03 ± 0.09 nmol/mg protein
